Source: patent US11337423B1, “Candida auris disinfectant” (priority 2021, dated 2022)

Experiments:
Assay in all cases: zone of inhibition in vitro test
Assay type in all cases: cell-based
MRSE ATCC 51625 = test system: MRSE ATCC 51625
[1] = test system: Propionibacterium acnes ATCC 6919
[2] = test system: Klebsiella pneumoniae ATCC 4352
[3] = test system: Methicillin Resistant Staphylococcus aureus ATCC 33591
Escherichia coli 0157:H7 = test system: Escherichia coli 0157:H7
[4] = test system: Escerichia coli ATCC 43895
Candida auris CDC B11903 = test system: Candida auris CDC B11903
[5] = test system: Clostridium perfrinqens ATCC 13124
[6] = test system: Pseudomonas aeruqinosa ATCC 9-27
[7] = test system: Escherichia coli ATCC 8739
[8] = test system: Lactobacillus casei ATCC 393
[9] = test system: Candida albicans ATCC 10231
[10] = test system: Salmonella enterica ATCC 14028
[11] = test system: Staphylococcus aureus ATCC 6538
[12] = test system: Staphyloccus epidermidis ATCC 12228
[13] = Candida auris CDC 811903, Table 2

CCOC(=O)c1ccc(O)c(O)c1 [Ethyl ester of protocatechuic acid, 3,4-Dihydroxybenzoic acid ethyl ester]
Average (mm) (MRSE ATCC 51625): 23 mm | RESULTS (mm) Plate 1 (MRSE ATCC 51625): 23 mm | RESULTS (mm) Plate 2 (MRSE ATCC 51625): 22 mm | Average (mm) [1]: 20 mm | RESULTS (mm) Plate 1 [1]: 22 mm | RESULTS (mm) Plate 2 [1]: 18 mm | Average (mm) [2]: 27 mm | RESULTS (mm) Plate 1 [2]: 28 mm | RESULTS (mm) Plate 2 [2]: 26 mm | Average (mm) [3]: 26.5 mm | RESULTS (mm) Plate 1 [3]: 28 mm | RESULTS (mm) Plate 2 [3]: 25 mm | Average (mm) (Escherichia coli 0157:H7): 27 mm | RESULTS (mm) Plate 1 (Escherichia coli 0157:H7): 26 mm | RESULTS (mm) Plate 2 (Escherichia coli 0157:H7): 28 mm | Average (mm) [4]: 27 mm | RESULTS (mm) Plate 1 [4]: 25 mm | RESULTS (mm) Plate 2 [4]: 28 mm | Average (mm) (Candida auris CDC B11903; [13]): 29.5 mm | RESULTS (mm) Plate 2 (Candida auris CDC B11903; [13]): 28 mm | RESULTS (mm) Plate I (Candida auris CDC B11903; [13]): 31 mm | topical disinfection for Candida auris (Candida auris CDC B11903; conclusion in words from the in vitro test results): excellent agent for topical disinfection | Average (mm) [5]: 52 mm | RESULTS (mm) Plate 1 [5]: 50 mm | RESULTS (mm) Plate 2 [5]: 54 mm | Average (mm) [6]: 11 mm | RESULTS (mm) Plate 1 [6]: 11 mm | RESULTS (mm) Plate 2 [6]: 11 mm | Average (mm) [7]: 23 mm | RESULTS (mm) Plate 1 [7]: 22 mm | RESULTS (mm) Plate 2 [7]: 24 mm | Average (mm) [8]: 23 mm | RESULTS (mm) Plate 1 [8]: 24 mm | RESULTS (mm) Plate 2 [8]: 22 mm | Average (mm) [9]: 29.5 mm | RESULTS (mm) Plate 1 [9]: 31 mm | RESULTS (mm) Plate 2 [9]: 28 mm | Average (mm) [10]: 28 mm | RESULTS (mm) Plate 1 [10]: 28 mm | RESULTS (mm) Plate 2 [10]: 28 mm | Average (mm) [11]: 27 mm | RESULTS (mm) Plate 1 [11]: 26 mm | RESULTS (mm) Plate 2 [11]: 28 mm | Average (mm) [12]: 35 mm | RESULTS (mm) Plate 1 [12]: 35 mm | RESULTS (mm) Plate 2 [12]: 35 mm

O=C(O)c1ccc(O)c(O)c1 [Protocatechuic acid, reference compound]
Average (mm) (MRSE ATCC 51625): 18 mm | RESULTS (mm) Plate 1 (MRSE ATCC 51625): 15 mm | RESULTS (mm) Plate 2 (MRSE ATCC 51625): 20 mm | Average (mm) [1]: 21 mm | RESULTS (mm) Plate 1 [1]: 23 mm | RESULTS (mm) Plate 2 [1]: 19 mm | Average (mm) [2]: 14.5 mm | RESULTS (mm) Plate 1 [2]: 16 mm | RESULTS (mm) Plate 2 [2]: 13 mm | Average (mm) [3]: 21 mm | RESULTS (mm) Plate 1 [3]: 21 mm | RESULTS (mm) Plate 2 [3]: 21 mm | Average (mm) (Escherichia coli 0157:H7): 15.5 mm | RESULTS (mm) Plate 1 (Escherichia coli 0157:H7): 17 mm | RESULTS (mm) Plate 2 (Escherichia coli 0157:H7): 14 mm | Average (mm) [4]: 13 mm | RESULTS (mm) Plate 1 [4]: 14 mm | RESULTS (mm) Plate 2 [4]: 12 mm | resistance of Candida auris to the chemical (Candida auris CDC B11903; conclusion in words): very resistant | Average (mm) [5]: 52 mm | RESULTS (mm) Plate 1 [5]: 54 mm | RESULTS (mm) Plate 2 [5]: 50 mm | Average (mm) [6]: 13 mm | RESULTS (mm) Plate 1 [6]: 13 mm | RESULTS (mm) Plate 2 [6]: 13 mm | Average (mm) [7]: 14 mm | RESULTS (mm) Plate 1 [7]: 14 mm | RESULTS (mm) Plate 2 [7]: 14 mm | Average (mm) [8]: 21 mm | RESULTS (mm) Plate 1 [8]: 18 mm | RESULTS (mm) Plate 2 [8]: 24 mm | Average (mm) [9]: 18 mm | RESULTS (mm) Plate 1 [9]: 21 mm | RESULTS (mm) Plate 2 [9]: 15 mm | Average (mm) [10]: 14 mm | RESULTS (mm) Plate 1 [10]: 15 mm | RESULTS (mm) Plate 2 [10]: 13 mm | Average (mm) [11]: 18 mm | RESULTS (mm) Plate 1 [11]: 18 mm | RESULTS (mm) Plate 2 [11]: 18 mm | Average (mm) [12]: 27 mm | RESULTS (mm) Plate 1 [12]: 26 mm | RESULTS (mm) Plate 2 [12]: 28 mm
